Values belong to the compound of their own block, whether it stands above or below them.
Experiments:
[1] = system: 17β-hydroxysteroid dehydrogenase; details: Thomas et al., 1983; cited from earlier work
[2] = system: uterine weight in adult female ovariectomized Balb/c mice; assay: inhibition of the estradiol-induced stimulation of uterine weight in adult female ovariectomized Balb/c mice; assay type: in vivo
Procedure: (§1) EM-142, and/or estradiol contained in ethanol were injected subcutaneously in the appropriate groups in a solution of 0.9% (w/v) sodium chloride and 1% (w/v) gelatin at different concentrations in 0.2 ml for EM-142, twice daily, starting on the day of ovariectomy for a total of 9 injections. Estradiol was injected at the dose of 0.01 μg in 0.2 ml, twice daily, starting on the morning after ovariectomy for a total of 8 injections.
After sacrifice, the uteri were rapidly removed, freed from fat and connective tissue and weighted. Results shown in FIG. 2 are the means±SEM of groups of 9-10 mice.
as §1, with “"EM 139", and/or” for “EM-142, and/or”, “estradiol dissolved” for “estradiol contained”, “concentrations of "EM 139" (as noted along the X axis of FIG. 3). A dosage of” for “concentrations in”, “ml of the foregoing preparation, was administered” for “ml for EM-142,”
After sacrifice, the uteri were rapidly removed, freed from fat and connective tissue and weighed. Results shown in FIG. 3 are the means±SEM of groups of 9-10 mice.

[3] = system: rat uterine cytosol estrogen receptor; assay: competition binding on the rat uterine cytosol estrogen receptor with [3H] estradiol; details: 25° C., FIG. 1
Procedure: J. Endocrinol. 112: R7-R110) and EM-142 (an antiestrogen having a nonsteroidal nucleus and synthesized in example 1, herein) for the rat uterine cytosol receptor ([…] et al., 1978; J. Steroid Biochem. 9: 1079-1082). EM-142 from example 1 was tested by competition binding on the rat uterine cytosol estrogen receptor with [^3 H] estradiol according to […] et al. (1976) prodecure. […] (incubation was performed at 25° C. for 3 hours).

[4] = system: 17β-hydroxysteroid dehydrogenase (17β-HSD); assay: inhibition of 17β-HSD catalyzed conversion of estradiol to estrone (NADH formation at 340 nm); assay type: biochemical, human; details: increasing concentrations; 1 μg 17β-HSD, 5 mM NAD, 20 μM 17β-estradiol, pH 7.5, 25° C., 15 min; FIG. 4
Source text: To test the effect of "EM 139" on the inhibition of sex steroid formation, its effect on the 17β-hydroxysteroid dehydrogenase catalyzed conversion of estradiol to estrone was observed. The reaction was followed by monitoring formation of NADH (at 340 nm). The rate of conversion of cofactor NAD to NADH varies directly with the rate of estradiol conversion to estrone. The ability of "EM 139" to inhibit estrone production is indicative of its ability to inhibit the estrogen-forming reverse reaction because both reactions are catalyzed by 17β-hydroxysteroid dehydrogenase (Thomas et al., J. Biol. Chem. 258: 11500-11504, 1983). 17β-hydroxysteroid dehydrogenase (17β-HSD) was purified to homogeneity from human placenta. A reaction vessel was prepared containing 1 μg 17β-HSD, 5 mM NAD, 20 μM 17β-estradiol, and the concentrations of the test compound "EM 139" which are indicated along the X-axis of FIG. 4 in 1.0 ml of a mixture of Tris-HCl (50 mM), EDTA (2 mM), NaN3 (5 mM). The pH was 7.5. The reaction was allowed to proceed at 25° C. for 15 min. Formation of NADH was measured at 340 nm.

[5] = system: ZR-75-1 human breast cancer cell line; assay: growth of ZR-75-1 human breast cancer cells; assay type: cell-based; details: for IC50: Homo sapiens, 240 h, 10 days, read-out: half-maximal effectiveness / IC50 on growth of ZR-75-1 cells
Procedure: ZR-75-1 cells (83rd passage) were obtained from the American Type Culture Collection (Rockville, Md.) and routinely cultured in phenol-red free RPMI 1640 supplemented with 1 nM E2, 2 mM L-glutamine, 1 mM sodium pyruvate, 15 mM N-2-hydroxyethyl-piperazine-N'-2-ethanesulfonic acid, 100 IU penicillin/ml, 100 μg streptomycin/ml, and 10% (v/v) fetal bovine serum (Hyclone, Logan, UT) under a humidified atmosphere of 95% air, 5% CO2, at 37° C. All media and medium supplements were purchased from Sigma. Cells were subcultured weekly by treatment with a pancreatic solution containing 0.02% EDTA (w/v). The cell cultures used for the experiments herein described were between passages 89 and 94.
Cells in their logarithmic growth phase were harvested, briefly centrifuged, and resuspended in RPMI 1640. Cells were then plated in triplicate in LIMBRO 24-well plastic culture plates (2 cm^2 /well). Since plating density influences the effect of hormones on ZR-75-1 cell growth, cells were plated at a density of 1×10^4 cells/well. After 72 h, medium was replaced with fresh medium of identical composition containing, in addition, the concentrations of steroids and/or inhibitors (e.g. EM 312 or EM 343) indicated along the X-axis of FIG. 5. Control cultures received the ethanol vehicle only. Cells were then allowed to grow at 37° C. for 10 days with medium changes (of identical composition) every 2 days. In absence of inhibitors, in 0.1 nM estradiol (E2)-containing medium, ZR-75-1 cells have doubling time of about 48 h.
After E2 and/or antiestrogen treatment, cells were harvested by addition of 0.5 ml of a pancreatin solution (Sigma) for 5-10 min at 37° C. before addition of 0.5 ml of RPMI 1640 containing 5% dextran-coated charcoal-fetal bovine serum in order to block enzymatic action. Cell number (0.10-ml aliquot) was determined by measurement of DNA content as previously described (Simard et al., Endocrinology 126: 3223-3231, 1990).

[6] = system: advanced breast cancer; details: H. Mouridsen et al., 1978; cited from earlier work
[7] = reported by Saeed et al. and Sharma et al., 1990; cited from earlier work

Structure (SMILES): C=C1C[C@H]2[C@@H]3CCc4cc(O)ccc4[C@H]3CC[C@]2(C)C1=O [16-methylene estrone]
inhibition of 17β-hydroxysteroid dehydrogenase activity (in words) [1]: inhibitors of 17β-hydroxysteroid dehydrogenase activity

binding potency compared with the antiestrogen ICI 164384 (in words) [3]: more potent | times less potent than 17β-estradiol [3]: 3 times
Structure (SMILES): CCCCN(C)C(=O)CCCCCCCCCCC(=C(CC)c1ccc(O)cc1)c1ccc(O)cc1 [EM 142, N-butyl, N-methyl-12,13-Bis(4-hydroxyphenyl)-12-pentadecenoic amide]
inhibitory effect on E2-induced uterine growth (in words) ([2]; 0.3 μg, s.c., twice daily, estradiol 0.01 μg, FIG. 2): significant inhibitory effect | reversal of estrogenic action on uterine weight (in words) ([2]; 20 μg, s.c., twice daily, estradiol 0.01 μg, FIG. 2): complete reversal of estrogenic action | estrogenic effect on uterine weight (in words) ([2]; EM-142, agonism on uterine weight): no estrogenic effect on uterine weight

Structure (SMILES): CCCCN(C)C(=O)CCCCCCCCCC[C@@H]1Cc2cc(O)ccc2[C@H]2CC[C@]3(C)[C@@H](O)[C@H](Cl)C[C@H]3[C@H]12 [EM 139, N-n-butyl-N-methyl-11-(16'α-chloro-3',17'β-dihydroxy-estra-1',3',5'(10') -trien-7' α-yl) undecanamide]
reduction of estradiol-induced uterine weight gain (in words) ([2]; s.c., twice daily, 9 injections, FIG. 3): highly effective in reducing estradiol-induced uterine weight gain | inhibition of 17β-HSD reaction (in words) [4]: significantly inhibited the reaction

Structure (SMILES): C=C1C[C@H]2[C@@H]3CCc4cc(O)ccc4[C@H]3CC[C@]2(C)[C@H]1O [16-methylene estradiol]
inhibition of 17β-hydroxysteroid dehydrogenase activity (in words) [1]: inhibitors of 17β-hydroxysteroid dehydrogenase activity

IC50 ([5]; ZR-75-1 cells, FIG. 5): 0.255 nM
Structure (SMILES): CC1=C(c2ccc(O)cc2)C(c2ccc(OCCN3CCCCC3)cc2)Oc2cc(O)ccc21 (stereo not shown) [EM 343]
cell growth inhibition (in words) ([5]; ZR-75-1 cells, low concentration, FIG. 5): extensive cell growth inhibition

Structure (SMILES): CC/C(=C(\c1ccccc1)c1ccc(OCCN(C)C)cc1)c1ccccc1 [Tamoxifen]
women patients with remission of advanced breast cancer [6]: about 30%

IC50 ([5]; ZR-75-1 cells, FIG. 5): 0.843 nM | fold by which IC50 is higher than that of EM 343 ([5]; ZR-75-1 cells, relative to EM 343, FIG. 5): 3 -fold
Structure (SMILES): Oc1ccc(C2=Cc3ccc(O)cc3OC2c2ccc(OCCN3CCCCC3)cc2)cc1 (stereo not shown) [EM 312]
antiestrogenic activity (in words) [7]: antiestrogenic activity | comparative effect on growth of ZR-75-1 cells vs EM 343 (in words) ([5]; comparative testing in the applicant's laboratory): underperformed EM 343
